Measurements reported in ChEMBL document CHEMBL4028839, “Synthesis of octapeptin C4 and biological profiling against NDM-1 and polymyxin-resistant bacteria” (Bioorg Med Chem Lett, 2017).
≈ marks a conversion by molar mass, not a printed value. Bridge positions count the residues as written; N and C are the ends. Square brackets hold non-standard residues; d marks the D form. Peptide text beside a SMILES is read from it. * marks the point of attachment. Decanoyl(3R-OH) = CCCCCCC[C@@H](O)CC(=O)*; dDab = NCC[C@@H](N)C(=O)O; Dab = NCC[C@H](N)C(=O)O

Tests used:
[1] = (§1) Cytotoxicity against HK2 cells after 24 hrs by LDH assay; type: cell-based, HK-2; conditions: human, HK-2 cells
[2] = (§2) Cytotoxicity against human RPTEC after 24 hrs by LDH assay; type: cell-based; conditions: RPTEC cells
Pseudomonas aeruginosa [3] = experiment: Antimicrobial activity against Pseudomonas aeruginosa ATCC 27853 measured after 24 hrs; type: functional
Klebsiella pneumoniae [4] = experiment: Antimicrobial activity against NDM-1 positive Klebsiella pneumoniae BAA-2146 measured after 24 hrs; type: functional
Acinetobacter baumannii = experiment: Antimicrobial activity against Acinetobacter baumannii ATCC 19606 measured after 24 hrs; type: functional
Pseudomonas aeruginosa [5] = experiment: Antimicrobial activity against polymyxin-resistant Pseudomonas aeruginosa clinical isolate PA9704 measured after 24 hrs; type: functional
Staphylococcus aureus = experiment: Antimicrobial activity against meticillin-susceptible Staphylococcus aureus ATCC 25923 measured after 24 hrs; type: functional
[6] = (§3) Antimicrobial activity against multi-drug resistant Klebsiella quasipneumoniae subsp. similipneumoniae ATCC 700603 measured after 24 hrs; type: functional; conditions: ATCC 700603, 24 h
Escherichia coli = experiment: Antimicrobial activity against Escherichia coli ATCC 25922 measured after 24 hrs; type: functional
Pseudomonas aeruginosa [7] = experiment: Antimicrobial activity against polymyxin-resistant Pseudomonas aeruginosa clinical isolate FADDI-PA070 measured after 24 hrs; type: functional
Klebsiella pneumoniae [8] = experiment: Antimicrobial activity against Klebsiella pneumoniae ATCC 13883 measured after 24 hrs; type: functional
HK-2 = experiment: as §1; type: cell-based; conditions: human, hk-2, 24 h
RPTEC = experiment: as §2; type: cell-based; conditions: rptec, 24 h
[9] = test system: Klebsiella quasipneumoniae subsp. Similipneumoniae; experiment: as §3; type: functional
[10] = ATCC 19606 = CIP 70.34 = JCM 6841, 24 h

| Molecule | CC50 at 24 h [1] [µM] | CC50 at 24 h [2] [µM] | MIC (Pseudomonas aeruginosa [3]; ATCC 27853, 24 h) [µg/mL] | MIC (Klebsiella pneumoniae [4]; ATCC BAA-2146, 24 h) [µg/mL] | MIC (Acinetobacter baumannii; [10]) [µg/mL] | MIC (Pseudomonas aeruginosa [5]; isolate PA9704, 24 h) [µg/mL] | MIC (Staphylococcus aureus; ATCC 25923, 24 h) [µg/mL] | MIC [6] [µg/mL] | MIC (Escherichia coli; ATCC 25922, 24 h) [µg/mL] | MIC (Pseudomonas aeruginosa [7]; isolate FADDI-PA070, 24 h) [µg/mL] | MIC (Klebsiella pneumoniae [8]; ATCC 13883, 24 h) [µg/mL] | also measured |
| --- | --- | --- | --- | --- | --- | --- | --- | --- | --- | --- | --- | --- |
| CCCCCCC[C@@H](O)CC(=O)N[C@H](CCN)C(=O)N[C@@H](CCN)C(=O)N[C@@H](CCN)C(=O)N[C@H](Cc1ccccc1)C(=O)N[C@@H](CC(C)C)C(=O)N[C@@H](CCN)C(=O)N[C@@H](CCN)C(=O)N[C@@H](CC(C)C)C(=O)O [listing 1 of 2 here] | 139 | 71 |  |  |  |  |  |  |  |  |  |  |
| CCCCCCC[C@@H](O)CC(=O)N[C@H](CCN)C(=O)N[C@@H](CCN)C(=O)N[C@@H](CCN)C(=O)N[C@H](Cc1ccccc1)C(=O)N[C@@H](CC(C)C)C(=O)N[C@@H](CCN)C(=O)N[C@@H](CCN)C(=O)N[C@@H](CC(C)C)C(=O)O [listing 2 of 2 here] |  |  | 4 (≈ 3.77 µM) | > 32 | > 32 | > 32 | 32 (≈ 30.1 µM) | 16 (≈ 15.1 µM) | 16 (≈ 15.1 µM) | 32 (≈ 30.1 µM) | > 32 |  |
| CCCCCCC[C@@H](O)CC(=O)N[C@H](CCN)C(=O)N[C@H]1CCNC(=O)[C@H](CC(C)C)NC(=O)[C@H](CCN)NC(=O)[C@H](CCN)NC(=O)[C@H](CC(C)C)NC(=O)[C@@H](Cc2ccccc2)NC(=O)[C@H](CCN)NC1=O ({Decanoyl(3R-OH)}-[dDab][Dab][Dab][dF]L[Dab][Dab]L; lactam 2-C) | 31 | 39 | 2 (≈ 1.92 µM) | 8 (≈ 7.66 µM) | 4 (≈ 3.83 µM) | 2 (≈ 1.92 µM) | 16 (≈ 15.3 µM) | 8 (≈ 7.66 µM) | 4 (≈ 3.83 µM) | 2 (≈ 1.92 µM) | 8 (≈ 7.66 µM) |  |
| POLYMYXIN B [listing 1 of 2 here] |  |  |  |  |  |  |  |  |  |  |  | CC50 (HK-2): 135 µM; CC50 (RPTEC): > 300 µM |
| POLYMYXIN B [listing 2 of 2 here] |  |  |  |  |  |  |  |  |  |  |  | MIC (Pseudomonas aeruginosa [3]): 0.5 µg/mL; MIC (Klebsiella pneumoniae [4]; ATCC BAA-2146): 0.25 µg/mL; MIC (Acinetobacter baumannii; ATCC 19606 = CIP 70.34 = JCM 6841): 0.25 µg/mL; MIC (Pseudomonas aeruginosa [5]): 128 µg/mL; MIC (Staphylococcus aureus): > 64 µg/mL; MIC [9]: 0.25 µg/mL; MIC (Escherichia coli): 0.25 µg/mL; MIC (Pseudomonas aeruginosa [7]): 32 µg/mL; MIC (Klebsiella pneumoniae [8]): 0.25 µg/mL |
